Data as given in PMC9455738, “Low-Dose Near-Infrared Light-Activated Mitochondria-Targeting Photosensitizers for PDT Cancer Therapy” (International Journal of Molecular Sciences, 2022).
Where two headings read alike, the source gives them in different places.

How the values were obtained:
Type in all cases: cell-based, human
[1] = tested on: A2780 cells; assay: Resazurin cytotoxicity, dark and after white light projector irradiation (>600 nm), A2780
Protocol: (§1) Therefore, the cytotoxicity of the Pc-based compounds was evaluated against different cell lines both under irradiation and in the dark. Compounds LC31, MLC31, and DMLC31Pt, as well as cisplatin were screened against several cancer cell lines representative of human cervical cancer (HeLa), cisplatin-sensitive human ovarian carcinoma (A2780), cisplatin-resistant ovarian endometrioid adenocarcinoma (A2780/CP70), and non-cancerous fibroblast (MRC-5) cell lines. […]
(§2) Human cervical carc in oma cells (HeLa) were cultured in DMEM (Gibco) supplemented with 5% fe t a l calf serum (FCS, Gibco), 100 U/mL penicillin, 100 µg/mL st re pto myc i n . The normal human fe t a l lung fibroblast cell line (MRC‐5) wa s grown in MEM medium (Gibco) supplemented with 10% FCS (Gibco), penicillin (100 U/mL), and st re pto myc i n (100 µg/mL). The human ovarian carc in oma A2780 cell line and a cisplatin‐resistant subline CP70 were cultured in RPMI‐1640 medium (Gibco) supplemented with 10% FCS (Gibco), penicillin (100 U/mL), and st re pto myc in (100 μg/mL). The cells were cultured at 37 °C an d in 5% CO2 humidified at mo sph e re .
(§3) Cy to toxicit y Determination
(§4) The c y totoxic ity of the PSs in the dark and upon light irradiation was evaluated in several cell lines, using a re sa zu r in‐based fluorometric cell viability assay (Sigma‐Aldrich, Darmstadt, Germany). Stock solutions of the Pc agents (5 mM) were prepared in DMF and sto re d in the dark. The sto c k solutions were further diluted with co mp l ete medium to the desired working concentrations. Fo r an exp eriment , 100 µL aliquots of cells in growth medium were seeded in 96‐well plates (density of 2.5 × 10^3 cells/well fo r HeLa, 4 × 10^3 cells/well fo r A2780, and 1.5 × 10^3 cells/well fo r MRC‐5 cells) and incubated at 37 °C, 5% CO2 and 100% humidity. […] At the end of the incubation period, fluorescence of the highly re d fluorescent re so r u f in product (λex = 540 nm, λem = 590 nm) was quantified using a SpectraMax M5 microplate re a d e r (Molecular Device, San Jose, USA). […]

[2] = tested on: A2780/CP70 cells; assay: Resazurin cytotoxicity, dark and after white light projector irradiation (>600 nm), A2780/CP70
Protocol: as §1, §2, §3, §4

[3] = tested on: HeLa cells; assay: Resazurin cytotoxicity, dark and after white light projector irradiation (>600 nm), HeLa
Protocol: as §1, §2, §3, §4

[4] = tested on: MRC-5 cells; assay: Resazurin cytotoxicity, dark and after white light projector irradiation (>600 nm), MRC-5
Protocol: as §1, §2, §3, §4

N.N.[Cl][Pt][Cl] [cisplatin, Cis-[PtCl2(NH3)2]]
p.i. A2780 ([1]; 6.96 J cm^−2): 0.7 | IC50 ([1]; 4 h incubation in the dark, further 72 h incubation, read-out: IC50 A2780 Dark): 2.8 µM | IC50 ([1]; 4 h incubation, white light projector cutoff below 600 nm, 5.8 mW cm^−2, 6.96 J cm^−2, read-out: IC50 A2780 Light): 4 µM | IC50 ([2]; A2780/CP70 (cisplatin resistant), 4 h incubation in the dark, read-out: IC50 A2780/CP70 Dark): 102 µM | p.i. A2780/CP70 ([2]; A2780/CP70, 6.96 J cm^−2): 0.79 | IC50 ([2]; A2780/CP70, 4 h incubation, white light projector cutoff below 600 nm, 5.8 mW cm^−2, 6.96 J cm^−2, read-out: IC50 A2780/CP70 Light): 129 µM | p.i. HeLa (phototoxicity index, IC50 dark / IC50 light) ([3]; 6.96 J cm^−2): 0.76 | IC50 ([3]; 4 h incubation in the dark, further 72 h incubation, read-out: IC50 HeLa Dark): 1.3 µM | IC50 ([3]; 4 h incubation, white light projector cutoff below 600 nm, 5.8 mW cm^−2, 6.96 J cm^−2, further 72 h, read-out: IC50 HeLa Light): 1.7 µM | p.i. MRC-5 ([4]; MRC-5, 6.96 J cm^−2): 1.2 | IC50 ([4]; MRC-5, 4 h incubation, white light projector cutoff below 600 nm, 5.8 mW cm^−2, 6.96 J cm^−2, read-out: IC50 MRC-5 Light): 4.5 µM | IC50 ([4]; MRC-5 non-cancerous fibroblast, 4 h incubation in the dark, read-out: IC50 MRC-5 Dark): 5.4 µM
